{"source": "PubChem BioAssay AID812", "about": "(SRMLSC, 2007)", "note": "Activity calls are given as the source filed them. How the calls were made is not given here."}
{"system": "Saccharomyces cerevisiae lifespan extension, no nicotinamide", "assay": "yeast lifespan extension without nicotinamide, confirmation, yeast lifespan extension project, S. cerevisiae (AID 812);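 further: growth read as optical density after 42 hours of incubation at 30C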"}
{"smiles": "CCOc1ccc(C2=NNC(c3cccs3)=Nc3ccc(OCC)cc32)cc1", "EC50": "> 40 µM (inactive)"}
{"smiles": "Cc1ccc2nc(-c3ccc(NC(=O)CSc4ccccc4)cc3)[nH]c2c1", "EC50": "> 40 µM (inactive)"}
{"smiles": "Cc1ccc(C(=O)C2C(=O)c3ccccc3C2=O)cc1", "EC50": "> 40 µM (inactive)"}
{"smiles": "CCc1oc2ccccc2c1C(=O)CCN1CCCCC1", "EC50": "> 40 µM (inactive)"}
{"smiles": "Cc1ccc(C(=O)NNC(=S)NC(=O)c2ccc(Cl)cc2)cc1", "EC50": "> 40 µM (inactive)"}
{"smiles": "O=C(c1c[nH]c(C(=O)C(Cl)(Cl)Cl)c1)c1ccccc1Cl", "EC50": "7.18 µM"}
{"smiles": "CCOC(=O)/C(=C\\c1cn(C)c2ccccc12)[N+](=O)[O-]", "EC50": "> 40 µM (inactive)"}
{"smiles": "CCCCCCN1CC(C(=O)OCC)C(=O)C1=O", "note": "(stereo not given)", "EC50": "> 40 µM (inactive)"}
{"smiles": "Cc1n[nH]c(=O)n1-c1cccc(C(F)(F)F)c1", "EC50": "> 40 µM (inactive)"}
{"smiles": "Cn1nnnc1SCCNCC#Cc1ccccc1", "EC50": "> 40 µM (inactive)"}
{"smiles": "C=CCn1c(C)cc(C(=O)COc2ncnc3sccc23)c1C", "EC50": "> 40 µM (inactive)"}
{"smiles": "CCCCCCC1C(C#N)=C(N)OC2=C1C(=O)CC(C)(C)C2", "note": "(stereo not given)", "EC50": "> 40 µM (inactive)"}
{"smiles": "CC1(C)Cc2ccccc2-c2nnc(SCC(=O)Nc3ccc4c(c3)OCO4)n21", "EC50": "> 40 µM (inactive)"}
{"smiles": "O=C(CCN1CCCCCC1)Nc1ccc(F)cc1", "EC50": "> 40 µM (inactive)"}
{"smiles": "COc1ccc(CC(=O)Nc2ccc3c(c2)CCC3)cc1S(=O)(=O)N1CCOCC1", "EC50": "> 40 µM (inactive)"}
{"smiles": "NC(=S)N/N=C/c1coc2cc(Cl)ccc2c1=O", "EC50": "> 40 µM (inactive)"}
{"smiles": "COC(=O)c1sc2ncn(-n3c(C)ccc3C)c(=O)c2c1C", "EC50": "> 40 µM (inactive)"}
{"smiles": "COCCn1c(SCC(=O)Nc2ccc(C)cc2)nc2c(oc3ccccc32)c1=O", "EC50": "> 40 µM (inactive)"}
{"smiles": "Oc1ccc2ccccc2c1C=Nc1ccccc1-c1nc2ccccc2[nH]1", "EC50": "> 40 µM (inactive)"}
{"smiles": "O=c1c2ccccc2nc(-c2cccc(Cl)c2)n1O", "EC50": "> 40 µM (inactive)"}
{"smiles": "O=C(Oc1ccc([N+](=O)[O-])cc1)c1ccc2ccccc2n1", "EC50": "> 40 µM (inactive)"}
{"smiles": "CSC1=NSC2=NC(=O)/C(=C\\c3cccs3)C(=N)N12", "EC50": "> 40 µM (inactive)"}
{"smiles": "O=C(/C(=C/c1ccccc1)n1cncn1)c1ccc(Cl)cc1Cl", "EC50": "> 40 µM (inactive)"}
{"smiles": "CCOc1ccc(NCc2nc3ccccc3n2CCOc2ccccc2)cc1", "EC50": "> 40 µM (inactive)"}
{"smiles": "CN(C)/C=C(/C(=O)c1ccc(Cl)cc1Cl)S(=O)(=O)c1ccc(Cl)cc1", "EC50": "> 40 µM (inactive)"}
{"smiles": "CC(C)c1nnc(NC(=O)c2c(O)c3cccc4c3n(c2=O)CCC4)s1", "EC50": "> 40 µM (inactive)"}
{"smiles": "COc1ccccc1CNC(=O)C(CCSC)NS(=O)(=O)c1ccc2c(c1)oc(=O)n2C", "note": "(stereo not given)", "EC50": "> 40 µM (inactive)"}
{"smiles": "O=C(NC(=S)Nc1nc2c(s1)CSc1ccccc1-2)c1ccccc1", "EC50": "> 40 µM (inactive)"}
{"smiles": "CCc1c(C)c(C#N)c2nc3ccccc3n2c1Cl", "EC50": "> 40 µM (inactive)"}
{"smiles": "Cc1cc(C=C2C(=O)N(C)C(=S)N(C)C2=O)c(C)n1-c1cccnc1", "EC50": "> 40 µM (inactive)"}
{"smiles": "Cc1nonc1NC(=O)CSc1nc(C2CCCCC2)nc2ccccc12", "EC50": "> 40 µM (inactive)"}
{"smiles": "COc1ccc(NC(=O)/C(Cl)=C(/Cl)S(=O)Cc2ccc(C)cc2)cn1", "note": "(stereo not given)", "EC50": "> 40 µM (inactive)"}
{"smiles": "CN1C(=O)C(Cl)(Cl)C(=O)c2ccccc21", "EC50": "> 40 µM (inactive)"}
{"smiles": "COc1ccc(N(C(=O)C(C)C)S(=O)(=O)c2ccc(Cl)cc2)cc1", "EC50": "> 40 µM (inactive)"}
{"smiles": "CCCn1c(C)cc(C(=O)COc2ncnc3sccc23)c1C", "EC50": "> 40 µM (inactive)"}
{"smiles": "CCCCCCCCn1c(=O)c(C(=O)OCC)c(O)c2ccccc21", "EC50": "> 40 µM (inactive)"}
{"smiles": "CS(=O)(=O)c1nc(-c2cccs2)cc(C(F)(F)F)n1", "EC50": "> 40 µM (inactive)"}
{"smiles": "N#Cc1cc(C(=O)c2cc(F)ccc2O)cn(-c2nccs2)c1=O", "EC50": "> 40 µM (inactive)"}
{"smiles": "O=C(NC(=S)NNC(=O)c1ccccc1O)c1ccco1", "EC50": "> 40 µM (inactive)"}
{"smiles": "COc1ccc(CCN2C(=O)C(O)=C(C(=O)c3ccco3)C2c2cccs2)cc1OC", "note": "(stereo not given)", "EC50": "> 40 µM (inactive)"}
{"smiles": "CCOc1ccc(/C=C/C(=O)c2c(O)c3ccccc3oc2=O)cc1", "EC50": "> 40 µM (inactive)"}
{"smiles": "O=C(Nc1scc(-c2cccs2)c1C(=O)O)c1cccs1", "EC50": "> 40 µM (inactive)"}
{"smiles": "CCOC(=O)CS(=O)(=O)c1nc(-c2ccc(F)cc2)cc(C(F)(F)F)n1", "EC50": "> 40 µM (inactive)"}
{"smiles": "CC(C)C(OC(=O)CN1C(=O)COc2ccccc21)C(=O)NC1CCCC1", "note": "(stereo not given)", "EC50": "> 40 µM (inactive)"}
{"smiles": "Cc1ccsc1C(=O)Nc1nnc(-c2ccco2)o1", "EC50": "> 40 µM (inactive)"}
{"smiles": "CC(=O)Nc1c(O)nc(SCc2ccccc2C#N)[nH]c1=O", "EC50": "> 40 µM (inactive)"}
{"smiles": "CC(C)(C)OC(=O)[C@H]1[C@H](c2ccc([N+](=O)[O-])cc2)C2(C(=O)c3ccccc3C2=O)C2c3ccccc3C=NN21", "note": "(stereo not given in full)", "EC50": "> 40 µM (inactive)"}
{"smiles": "Cc1ccnc(N=Cc2c(O)ccc3oc4c(c23)CCCC4)c1", "EC50": "> 40 µM (inactive)"}
{"smiles": "CN1CCC2(CC1)C(C#N)=C(N)NC(S)=C2C#N", "EC50": "> 40 µM (inactive)"}
{"smiles": "CC(=O)N1CCN(CCN=CC2=C(O)CC(c3cccs3)CC2=O)CC1", "note": "(stereo not given)", "EC50": "> 40 µM (inactive)"}
{"smiles": "CC1(C)Oc2ccccc2OC1(O)c1ccc2ccccc2n1", "note": "(stereo not given)", "EC50": "> 40 µM (inactive)"}
{"smiles": "CCOC(=O)COc1ccccc1/C=C\\[N+](=O)[O-]", "EC50": "> 40 µM (inactive)"}
{"smiles": "CCCC(=Nc1ccccc1OC)C1=C(O)CC(c2ccccc2)CC1=O", "note": "(stereo not given)", "EC50": "> 40 µM (inactive)"}
{"smiles": "Cc1ccc2nc(N3C(=O)C(O)=C(C(=O)c4ccco4)C3c3cccs3)sc2c1", "note": "(stereo not given)", "EC50": "> 40 µM (inactive)"}
{"smiles": "Oc1ccc(NCc2ccccc2OCc2ccccc2F)cc1", "EC50": "> 40 µM (inactive)"}
{"smiles": "CCn1ccc(C(=O)Nc2ccc(S(=O)(=O)Nc3ccccc3OC)cc2)n1", "EC50": "> 40 µM (inactive)"}
{"smiles": "CCCCCOC(=O)CSc1nc2c(c(=O)[nH]c(=O)n2C)n1CCc1ccccc1", "EC50": "> 40 µM (inactive)"}
{"smiles": "Cc1cc(C)c(S(=O)(=O)c2ccccc2)c(OC(=O)c2cc(F)c(F)cc2Cl)n1", "EC50": "> 40 µM (inactive)"}
{"smiles": "CCOC(=O)c1c(C)oc2c1c(C(c1cccnc1)N1CCOCC1)c(O)c1ccccc12", "note": "(stereo not given)", "EC50": "> 40 µM (inactive)"}
{"smiles": "O=C1NC(=O)N(CCC2=CCCCC2)C(=O)/C1=C\\c1cccs1", "EC50": "> 40 µM (inactive)"}
{"smiles": "CC(=C1C(=O)c2ccccc2C1=O)N1CCN(c2ccccn2)CC1", "EC50": "> 40 µM (inactive)"}
{"smiles": "CN1C(=O)NC(c2ccc(O)cc2)C(C(=O)c2cccs2)C1(O)C(F)(F)F", "note": "(stereo not given)", "EC50": "> 40 µM (inactive)"}
{"smiles": "Nc1cccc2c1C(=O)N(C(=O)c1ccc(Cl)c(S(=O)(=O)N3CCCCCC3)c1)C2=O", "EC50": "> 40 µM (inactive)"}
{"smiles": "CCOC(=O)C1C(=O)C(C(C)=O)C(=O)CC1CC(C)SCC", "note": "(stereo not given)", "EC50": "> 40 µM (inactive)"}
{"smiles": "C=CCn1c(-c2ccc(OC)cc2)csc1=Nc1c(C)n(C)n(-c2ccccc2)c1=O", "EC50": "> 40 µM (inactive)"}
{"smiles": "O=C(O)c1ccc(O)c(N2C(=O)Nc3ccccc3N2O)c1", "EC50": "> 40 µM (inactive)"}
{"smiles": "C=CS(=O)(=O)c1ccc(Oc2ccc(S(=O)(=O)C=C)cc2)cc1", "EC50": "> 40 µM (inactive)"}
{"smiles": "Cc1ccnc(SCc2cc(=O)c(OC(=O)c3ccco3)co2)n1", "EC50": "> 40 µM (inactive)"}
{"smiles": "COc1cc(/C=C/C(=O)c2c(O)cc(C)oc2=O)cc(OC)c1O", "EC50": "> 40 µM (inactive)"}
{"smiles": "CC(=O)c1c(C)[nH]c(C(=O)OC2CCCCC2=O)c1C", "note": "(stereo not given)", "EC50": "> 40 µM (inactive)"}
{"smiles": "CC1CCCN(c2nc3ccccc3nc2C(C#N)C(=O)OC2CCCCC2)C1", "note": "(stereo not given)", "EC50": "> 40 µM (inactive)"}
{"smiles": "Cc1ccc2[nH]c3c(c2c1)CC/C(=C/c1ccccc1)C3=O", "EC50": "> 40 µM (inactive)"}
{"smiles": "CCCCCSc1nc2c(c(=O)[nH]c(=O)n2C)n1C", "EC50": "> 40 µM (inactive)"}
{"smiles": "Cc1ccc(S(=O)(=O)Nc2ccccc2/C=N/c2nc3ccccc3n2C(C)C)cc1", "EC50": "> 40 µM (inactive)"}
{"smiles": "N#C/C(=C\\c1ccccc1)C(=O)N(c1ccccn1)C1CCCCC1", "EC50": "> 40 µM (inactive)"}
{"smiles": "CN(C)CC(C(=O)c1ccccc1)c1ccccc1", "note": "(stereo not given)", "EC50": "> 40 µM (inactive)"}
{"smiles": "Cc1ccc(C(=O)OC2=CC(=O)CC(C)(C)C2)cc1", "EC50": "> 40 µM (inactive)"}
{"smiles": "O=C1C(=C(O)c2ccccc2)C(=O)c2ccccc21", "EC50": "> 40 µM (inactive)"}
{"smiles": "CCC(=O)N1CCN(CCN=CC2=C(O)CC(c3cccs3)CC2=O)CC1", "note": "(stereo not given)", "EC50": "> 40 µM (inactive)"}
{"smiles": "CCCCSc1[nH]c(=O)c(C(=O)OCC)cc1C#N", "EC50": "> 40 µM (inactive)"}
